Experimental findings from patent publication US20080206181A1, “Hair treatment compositions containing sophora alkaloids” (Conopco Inc, d/b/a UNILEVER, priority 2007, published 2008) are described below.

A short description of assay [1]: Differential scanning calorimetry (DSC) of bleach-damaged hair fibres. As to conditions: for Average Denaturation Temperature Td / Sub From damaged (Td increase over damaged hair): bleached hair immersed in 1% aqueous solution at pH 5.5 for 1 hour; for Repair of damage caused by bleaching hair fibre (in words): summary of Table 2. Here is the method: To prepare damaged hair fibre, European hair fibres were bleached with L' Oreal Platifiz precision powder and Oxydant crème (1:1.5) for 30 min, rinsed completely with running tap water and naturally dried overnight before the next application. These hair fibres were immersed in a 1% aqueous solution of test material (matrine or oxymatrine respectively) and water (as a control) at pH 5.5 (adjusted with HCl and NaOH) for 1 hour respectively, rinsed with distilled water for 30 sec and naturally dried overnight and then they were cut into ˜2 mm lengths with scissors.
For the DSC investigation a Mettler Toledo DSC823e analyser was used. About 6 mg of sample was weighed into a pressure resistant (20 bar), stainless steel, large volume pan (120 μl capacity). 50 μl of water was added and the pan was sealed. Samples were then mixed using a rotary mixer and left overnight to allow the water to equilibrate throughout the sample. Samples were run through a temperature programme of […] at a rate of 10° C./min in 30 ml/min nitrogen atmosphere. The helix transition temperature was collected and analyzed with one-way ANOVA. Each sample was carried out three times.

Assay [2] in a line: Protein leaching from hair fibres (BCA protein assay kit). As to conditions: for Protein leaching from hair fibres, Average: 1% test material + 2% SDS, pH about 6.0, 10 mg hair fibres, 37° C., 24 h; for Effect on protein leaching induced by SDS (in words): summary of Table 1. As to the method:
Protein leaching assays were conducted in order to find out the protective effect of test materials on protein leaching from hair.
Chinese hair fibres from the same head were washed with shampoo and air dried. Then they were immersed in ether for 2 min to remove lipid components and rinsed with running water and air. The hair fibres were cut into ˜2 mm length with scissors.
A 200 μL solution consisting of 1% test material (matrine or oxymatrine respectively) and 2% sodium dodecyl sulphate (SDS), where pH was adjusted to about 6.0 with citric acid, was incubated with 10 mg hair fibres at 37° C. for 24 h.
Protein leaching from the treated hair fibres was determined with a BCA protein assay kit.
The data were collected and analysed with One-Way ANOVA by using SPSS software. LSD was used when variances were equal, and Tamhane's T2 was used when variances were not equal.

Marks after values point to notes of the source that are not given here.

In the case of `O=C1CCC[C@@H]2[C@H]3CCC[N+]4([O-])CCC[C@@H](CN12)[C@@H]34` (single isomer, unassigned; (+)) [Oxymatrine, (+)-oxymatrine], the “Average Denaturation Temperature Td” value was 152.24** ° C in assay [1] (1st run); 152.24 °C in assay [1] (1st run, listed as oxymatrine); 150.67** ° C in assay [1] (2nd run). In addition, the “Sub From damaged (Td increase over damaged hair)” value in assay [1] (1st run) is 9.68 °C; in assay [1] (2nd run) it was 7.49. Further, the “Repair of damage caused by bleaching hair fibre (in words)” value in assay [1] was “fully repair the damage”. Moreover, the “Protein leaching from hair fibres, Average” value (shortened to “Protein leaching … Average”) in assay [2] (1st Run) was 0.854** μg/mg; in assay [2] (2nd Run), 1.035** μg/mg. The “Effect on protein leaching induced by SDS (in words)” value in assay [2] was “reduce protein leaching”.
As to `O=C(O)CC(O)(CC(=O)O)C(=O)O` [Citric acid], the “Protein leaching … Average” value in assay [2] (2nd Run) turned out to be 1.121 µg/mg.
For `O=C1CCC[C@@H]2[C@H]3CCCN4CCC[C@@H](CN12)[C@@H]34` [Matrine, (+)-matrine], the “Average Denaturation Temperature Td” value in assay [1] (1st run) is 148.00** ° C; in assay [1] (1st run, listed as matrine), 148 °C; in assay [1] (2nd run), 148.07** ° C. The “Sub From damaged (Td increase over damaged hair)” value in assay [1] (1st run) turned out to be 5.43 °C; in assay [1] (2nd run), 4.89. In assay [1], the “Repair of damage caused by bleaching hair fibre (in words)” value is “fully repair the damage”. In addition, the “Protein leaching … Average” value in assay [2] (1st Run) is 0.792** μg/mg; in assay [2] (2nd Run), 1.105* μg/mg. Besides, the “Effect on protein leaching induced by SDS (in words)” value in assay [2] was “reduce protein leaching”.
